The values below come from ChEMBL document CHEMBL3632538, “Novel 5-carboxy-8-HQ based histone demethylase JMJD2A inhibitors: introduction of an additional carboxyl group at the C-2 position of quinoline” (Eur J Med Chem, 2015).

In brackets after ≈: the same amount, converted by molar mass. Activity calls are given as the source filed them. The rule behind the calls is not given here.

For data set [1], the target named is T1, Lysine-specific demethylase 4A (Homo sapiens, UniProt O75164).
T1 sequence (O75164 whole entry): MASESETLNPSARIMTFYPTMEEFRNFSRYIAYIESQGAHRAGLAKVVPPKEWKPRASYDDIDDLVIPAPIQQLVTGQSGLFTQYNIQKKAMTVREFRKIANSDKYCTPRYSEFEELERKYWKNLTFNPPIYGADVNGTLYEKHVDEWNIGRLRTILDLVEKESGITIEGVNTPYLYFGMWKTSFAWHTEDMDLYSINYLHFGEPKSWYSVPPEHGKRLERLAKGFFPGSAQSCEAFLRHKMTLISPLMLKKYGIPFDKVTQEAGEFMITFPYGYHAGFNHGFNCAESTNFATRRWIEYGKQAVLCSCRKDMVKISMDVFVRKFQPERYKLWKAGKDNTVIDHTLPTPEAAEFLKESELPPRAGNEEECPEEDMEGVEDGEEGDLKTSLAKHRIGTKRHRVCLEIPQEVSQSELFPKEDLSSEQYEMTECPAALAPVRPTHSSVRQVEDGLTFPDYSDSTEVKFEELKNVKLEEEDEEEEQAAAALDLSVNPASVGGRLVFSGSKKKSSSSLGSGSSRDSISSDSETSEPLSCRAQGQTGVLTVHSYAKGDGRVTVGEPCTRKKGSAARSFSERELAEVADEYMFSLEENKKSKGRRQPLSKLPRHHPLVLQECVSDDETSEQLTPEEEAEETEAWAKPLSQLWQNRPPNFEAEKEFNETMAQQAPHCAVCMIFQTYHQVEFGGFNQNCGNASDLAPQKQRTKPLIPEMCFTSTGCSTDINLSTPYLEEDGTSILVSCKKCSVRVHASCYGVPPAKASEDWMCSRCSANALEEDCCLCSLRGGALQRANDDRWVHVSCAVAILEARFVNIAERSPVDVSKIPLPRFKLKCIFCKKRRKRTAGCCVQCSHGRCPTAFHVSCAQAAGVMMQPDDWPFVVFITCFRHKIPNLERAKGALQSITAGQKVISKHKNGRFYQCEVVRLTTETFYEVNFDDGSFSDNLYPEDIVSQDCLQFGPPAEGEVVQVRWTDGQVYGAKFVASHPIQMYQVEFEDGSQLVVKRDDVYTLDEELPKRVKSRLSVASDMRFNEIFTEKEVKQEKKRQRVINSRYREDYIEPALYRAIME
The experiment in a line: Inhibition of recombinant human JMJD2A using biotinylated histone H3 as substrate by AlphaScreen assay.

Data set [2] can be described thus: Partition co-efficient, log D of the compound at pH 7.4. Type of data set: physicochemical. To be noted: buffer.
Data set [3] in a line: Permeability of the compound at 10 mM after 4 hrs by PAMPA. The data set is classed as physicochemical. The settings on record: read-out: permeability.
The target of data set [4] is Egl nine homolog 1 (Homo sapiens) (UniProt Q9GZT9). Kind of data set: Displacement of F-HIF1alpha from PHD2 (unknown origin) at 50 uM by fluorescence polarization assay relative to control.
Sequence of Egl nine homolog 1 (Homo sapiens) (Q9GZT9 2-426 limits assumed): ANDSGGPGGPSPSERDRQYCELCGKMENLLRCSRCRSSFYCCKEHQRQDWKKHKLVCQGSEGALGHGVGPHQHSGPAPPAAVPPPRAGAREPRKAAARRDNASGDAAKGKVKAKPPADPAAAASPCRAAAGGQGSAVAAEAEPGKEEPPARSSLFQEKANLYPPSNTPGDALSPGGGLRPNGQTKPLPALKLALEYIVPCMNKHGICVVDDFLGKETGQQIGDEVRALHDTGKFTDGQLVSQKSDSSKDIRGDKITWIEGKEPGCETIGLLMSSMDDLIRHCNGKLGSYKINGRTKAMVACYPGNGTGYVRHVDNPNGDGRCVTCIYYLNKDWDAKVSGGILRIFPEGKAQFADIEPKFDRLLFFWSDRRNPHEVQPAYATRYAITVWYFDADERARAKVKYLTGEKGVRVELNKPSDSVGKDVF
The subject of the next data set is A549. Kind of data set: Cytotoxicity against human A549 cells assessed as cell viability after 48 hrs by MTT assay. The settings on record: A549, 48 h. Type of data set: functional, cell-based.
For another data set, the system named is MCF7. The experiment in a line: Cytotoxicity against human MCF7 cells assessed as cell viability after 48 hrs by MTT assay. The data set is classed as functional, cell-based. The settings on record: MCF7, 48 h.
The nature of data set [5]: Intrinsic aqueous solubility of the compound after 24 hrs by UV spectrophotometric analysis. The data set is classed as physicochemical. To be noted: read-out: Intrinsic_solubility.
Another data set concerns HCT-116. The experiment in a line: Cytotoxicity against human HCT116 cells assessed as cell viability after 48 hrs by MTT assay. The data set is classed as functional, cell-based. To be noted: HCT-116, 48 h.
For data set [6], the target named is T2, Lysine-specific demethylase 4A (Homo sapiens) (UniProt O75164).
T2 sequence (whole entry): T1 sequence (O75164 whole entry)
Kind of data set: Inhibition of JMJD2A in human HCT116 cells assessed as induction of H3K9me2 hypermethylation at 5 to 10 uM by Western blot analysis. Type of data set: cell-based. The settings on record: HCT-116.

The target of data set [7] is T2, Lysine-specific demethylase 4A (Homo sapiens). The experiment in a line: Inhibition of JMJD2A in human HCT116 cells assessed as induction of H3K9me3 hypermethylation at 5 to 10 uM by Western blot analysis. Type of data set: cell-based. The settings on record: HCT-116.

Turning to `O=C(NCc1ccccc1)c1ccc2c(C(=O)O)ccc(O)c2n1`, the concentration for half-maximal inhibition (IC50) in data set [1] was above 100 µM.
Take `O=C(Nc1ccccn1)c1ccc2c(C(=O)O)ccc(O)c2n1`: in data set [2], the logD worked out at 1.2. Moreover, the IC50 came to 2.8 µM in data set [1], 72.2 µM in the data set on A549, 43.4 µM in the data set on MCF7 and 67 µM in the data set with HCT-116. Besides, the Papp at 4 h, 10000 µM in data set [3] is 2.9 ×10⁻⁶ cm/s. Moreover, the inhibition in data set [4] came to 24%. Besides, in data set [5], the solubility at 24 h came to 1200 µM (≈ 371 µg/mL).
With `COc1ccc(NC(=O)c2ccc3c(C(=O)O)ccc(O)c3n2)cc1`, the IC50 in [1] is above 100 µM.
Still for that read-out and setting: the result for `O=C(Nc1ccc(OC(F)(F)F)cc1)c1ccc2c(C(=O)O)ccc(O)c2n1` reads above 100 µM.
In the case of `CN(C)C(=O)c1ccc2c(C(=O)O)ccc(O)c2n1`, the logD in [2] was found to be 0.4. Further, the IC50 is 3.7 µM in data set [1], above 100 µM in the data set on A549, above 100 µM in the data set with MCF7 and above 100 µM with HCT-116. For the same compound, in data set [3], the Papp at 4 h, 10000 µM worked out at 3 ×10⁻⁶ cm/s. In data set [4], this compound showed an inhibition of 17.6%. In data set [5], the solubility at 24 h was found to be 3800 µM (≈ 989 µg/mL).
For `Cc1ccc(NC(=O)c2ccc3c(C(=O)O)ccc(O)c3n2)nc1`, the IC50 in data set [1] is 6.2 µM; in the data set with A549 it was 22.2 µM; with MCF7 it was above 100 µM; in the data set on HCT-116, 72.7 µM. The same compound came in with an inhibition in data set [4] of 23.5%.
On the same counts, the results for `O=C(O)c1ccc(O)c2nc(C(=O)N3CCOCC3)ccc12` are 5.1 µM, above 100 µM, above 100 µM, above 100 µM and 9.1%.
As for `CCN(CC)C(=O)c1ccc2c(C(=O)O)ccc(O)c2n1`, the logD in data set [2] came to 1.5. Besides, the IC50 in data set [1] was 1.8 µM; in the data set on A549 it was above 100 µM; in the data set on MCF7 it was above 100 µM; with HCT-116, 11.1 µM. The Papp at 4 h, 10000 µM in data set [3] came out at 2.3 ×10⁻⁶ cm/s. The compound further yielded an inhibition in data set [4] of 23.9%. Also, in [5], the solubility at 24 h turned out to be 3600 µM (≈ 1040 µg/mL).
Compound `O=C(O)c1ccc(O)c2ncccc12` had a logD in [2] of -1.9. For the same compound, the Papp at 4 h, 10000 µM in [3] came out at 2 ×10⁻⁶ cm/s. Moreover, in [4], the inhibition was found to be 66.3%. Moreover, the values for the IC50 with A549, with MCF7 and with HCT-116 were 48.2 µM, 66.4 µM and 28.1 µM, respectively. In addition, the solubility at 24 h in data set [5] came to 1200 µM (≈ 227 µg/mL).
In data set [2], `O=C(Nc1nc2ccccc2[nH]1)c1ccc2c(C(=O)O)ccc(O)c2n1` showed a logD of 2.7. Besides, the IC50 in [1] was found to be 19 µM; in the data set with A549, 21.7 µM; with MCF7, 27.6 µM; with HCT-116, 1.5 µM. Moreover, in data set [3], the Papp at 4 h, 10000 µM came out at 6.7 ×10⁻⁶ cm/s. The inhibition entry in data set [6] and in data set [7] was “Active” in each case. The inhibition in data set [4] came to 25%. The solubility at 24 h in data set [5] came out at 1300 µM (≈ 453 µg/mL).
Take `O=C(NCCCN1CCOCC1)c1ccc2c(C(=O)O)ccc(O)c2n1`: the IC50 was 82 µM in data set [1], above 100 µM in the data set with A549, above 100 µM with MCF7 and above 100 µM with HCT-116.
`Cc1ccccc1NC(=O)c1ccc2c(C(=O)O)ccc(O)c2n1`: the logD in data set [2] is 3. The IC50 was above 100 µM in [1], 94.6 µM in the data set with A549, above 100 µM with MCF7 and 59.6 µM with HCT-116. Besides, the Papp at 4 h, 10000 µM in [3] was 3.9 ×10⁻⁶ cm/s. In addition, the solubility at 24 h in data set [5] came to 700 µM (≈ 226 µg/mL).
Turning to `O=C(NCCc1c[nH]c2ccccc12)c1ccc2c(C(=O)O)ccc(O)c2n1`, in data set [2], the logD worked out at 2.9. In addition, the IC50 in data set [1] was 24 µM; in the data set with A549 it was above 100 µM; with MCF7, above 100 µM; in the data set on HCT-116 it was 68.3 µM. Further, the Papp at 4 h, 10000 µM in data set [3] turned out to be 3.6 ×10⁻⁶ cm/s. The compound further yielded an inhibition in data set [4] of 20.6%. In addition, in data set [5], the solubility at 24 h turned out to be 900 µM (≈ 338 µg/mL).
For the compound `COc1cccc(NC(=O)c2ccc3c(C(=O)O)ccc(O)c3n2)c1`, the IC50 in data set [1] is above 100 µM.
As for `CN1CCN(C(=O)c2ccc3c(C(=O)O)ccc(O)c3n2)CC1`, in data set [2], the pH-dependent lipophilicity (logD) is 0.3. Also, the IC50 in [1] was 1.6 µM; in the data set with A549, above 100 µM; in the data set on MCF7, 95 µM; with HCT-116 it was 94.9 µM. Moreover, the Papp at 4 h, 10000 µM in data set [3] was 3.3 ×10⁻⁶ cm/s. Moreover, in data set [4], the inhibition came out at 18.7%. Also, the solubility at 24 h in data set [5] was found to be 4900 µM (≈ 1550 µg/mL).
As for `O=C(Nc1ccccc1)c1ccc2c(C(=O)O)ccc(O)c2n1`, in [1], the IC50 was above 100 µM.
The same measure, in the same setting: in the case of `O=C(Nc1ccc(F)cc1)c1ccc2c(C(=O)O)ccc(O)c2n1` it was above 100 µM; in that of `Cc1ccc(NC(=O)c2ccc3c(C(=O)O)ccc(O)c3n2)cc1`, above 100 µM.
For the compound `CN(C)c1ccc(NC(=O)c2ccc3c(C(=O)O)ccc(O)c3n2)cc1`, the IC50 in [1] is above 100 µM.
Same read-out and setting: the result for `O=C(NC1CCCCC1)c1ccc2c(C(=O)O)ccc(O)c2n1` reads above 100 µM.
The same measure, in the same setting: in the case of `Cc1cccc(NC(=O)c2ccc3c(C(=O)O)ccc(O)c3n2)c1` it was above 100 µM; in that of `O=C(Nc1ccccc1F)c1ccc2c(C(=O)O)ccc(O)c2n1`, above 100 µM; in that of `O=C(Nc1cccc2ccccc12)c1ccc2c(C(=O)O)ccc(O)c2n1`, above 100 µM.
